Values after ≈ are worked out from the molar mass of the structure shown. “Also recorded” adds a separate entry of the source. Like-named read-outs stand apart in the source and are kept apart here.
How the values were obtained:
M. tuberculosis H37Ra = assay: microbe, parasite or virus in culture; assay type: cell-based, Mycobacterium tuberculosis; settings: for MIC: Mycobacterium tuberculosis, H37RA, read-out: MIC MTB H37Ra
[1] = tested on: three bacterial strains from the mouse microbiota (Oligo-Mouse-Microbiota); assay: MIC measurements in strains from the Oligo-Mouse-Microbiota; assay type: cell-based
[2] = tested on: probe-bound proteins in M. tuberculosis H37Ra cells; assay type: binding; settings: for competition of 227-p1 labelling of EphF and EphD: 5 μM 227-p1, competitor in excess (25 μM 227)
WT M. tuberculosis H37Rv = assay: microbe, parasite or virus in culture; assay type: cell-based
physchem = settings: aqueous buffer, kinetic from dmso stock
MmpL3 = MmpL3 (Mycobacterium tuberculosis, UniProt P9WJV5); assay type: cell-based, M. tuberculosis
Chain of MmpL3 (P9WJV5 whole entry): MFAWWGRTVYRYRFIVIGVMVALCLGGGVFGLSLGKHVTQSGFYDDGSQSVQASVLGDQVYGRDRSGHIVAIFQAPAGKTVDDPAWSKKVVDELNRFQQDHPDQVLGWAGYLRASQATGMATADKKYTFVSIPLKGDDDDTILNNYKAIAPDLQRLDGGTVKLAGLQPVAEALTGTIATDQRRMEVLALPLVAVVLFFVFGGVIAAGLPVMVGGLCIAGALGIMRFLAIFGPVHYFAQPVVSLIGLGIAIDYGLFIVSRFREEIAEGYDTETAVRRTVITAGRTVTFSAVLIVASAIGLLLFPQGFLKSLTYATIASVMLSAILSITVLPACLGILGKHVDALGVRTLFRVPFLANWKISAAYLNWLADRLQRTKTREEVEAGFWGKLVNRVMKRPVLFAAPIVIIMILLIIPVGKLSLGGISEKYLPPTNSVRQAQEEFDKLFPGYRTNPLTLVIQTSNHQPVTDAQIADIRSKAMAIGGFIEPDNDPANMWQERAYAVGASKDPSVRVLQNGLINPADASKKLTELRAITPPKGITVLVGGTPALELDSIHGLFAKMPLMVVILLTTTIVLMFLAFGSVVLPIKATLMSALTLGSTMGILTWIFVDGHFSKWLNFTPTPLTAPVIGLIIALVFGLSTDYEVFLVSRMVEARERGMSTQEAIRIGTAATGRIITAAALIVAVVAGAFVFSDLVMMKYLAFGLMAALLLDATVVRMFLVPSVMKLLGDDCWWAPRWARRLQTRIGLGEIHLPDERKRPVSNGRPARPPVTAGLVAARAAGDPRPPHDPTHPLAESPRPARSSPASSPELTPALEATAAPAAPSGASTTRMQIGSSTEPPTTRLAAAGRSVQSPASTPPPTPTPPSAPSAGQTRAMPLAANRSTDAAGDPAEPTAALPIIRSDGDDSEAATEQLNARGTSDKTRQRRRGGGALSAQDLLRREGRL

in vivo [3] = settings: female, CD-1, mouse
[4] = i.v. 5 mg kg^−1
Mtb H37Ra proteome = assay type: cell-based
in vivo [5] = assay: in vivo; design: species or system CD-1 female mice; settings: female, CD-1, mouse; for bioavailability: F
Protocol: (DMA), and 95% (20% Solutol HS15 in water).
Blood timepoints were taken
liquid chromatography coupled to tandem mass spectrometry. Pharmacokinetic parameters were
LC-MS/MS analytical methods for PK studies
to create standard curves solutions.
10µLs of control, standard, or
internal standards Labetalol (Sigma Aldrich). Extracts were vortexed for 5 minutes and centrifuged at
with 75 µLs of Milli-Q deionized water.
Multiple-reaction monitoring of […]
Extracts were vortexed for 5 minutes
75 µL of extract was combined
HPLC-MS was performed as previously specified.

[6] = tested on: M. tuberculosis H37Ra cells; assay type: cell-based
in vitro = settings: mouse, microsomes
epoxide hydrolase EphF = assay type: biochemical, M. tuberculosis
HeLa cells = assay: cells; assay type: cell-based; settings: Homo sapiens
MTB [7] = assay: Checkerboard assay with ethionamide; assay type: cell-based, M. tuberculosis; settings: combination with ethionamide
M. smegmatis DSM43756 = assay: MIC / in-house urea library screen against M. smegmatis; assay type: cell-based; settings: read-out: MIC M. smegmatis (Msm)
[8] = tested on: MmpL3 underexpressing (−ATc) Mtb H37Rv; assay type: cell-based, M. tuberculosis
Mtb [9] = settings: strain not stated; cited from earlier work
LepB = assay: FRET assay with membrane-bound LepB; settings: M. smegmatis membranes
[10] = Mycobacterium tuberculosis, H37RV
[11] = HeLa, read-out: MTT assay IC50 95% confidence interval (CI)
[12] = Mycolicibacterium smegmatis, DSM43756

SMILES: O=C(Nc1ccc(Cl)c(OC(F)(F)F)c1)NC1CCCCC1 [Compound 1]
- MIC (M. tuberculosis H37Ra): 3.13 µM (≈ 1.05 µg/mL)

SMILES: O=C(Nc1cc(C(F)(F)F)c(Cl)cn1)NC1CCCCC1 [Compound 2]
- MIC (M. tuberculosis H37Ra): > 50 µM

SMILES: CC1(NC(=O)Nc2ccc(Cl)c(C(F)(F)F)c2)CCCC1 [Compound 3]
- MIC MTB H37Ra (M. tuberculosis H37Ra): 0.39 µM (≈ 0.125 µg/mL)
- MIC (M. tuberculosis H37Ra): 0.4 µM (≈ 0.128 µg/mL)

SMILES: CC1(NC(=O)Nc2ccc(F)c(C(F)(F)F)c2)CCCC1 [Compound 4]
- MIC (M. tuberculosis H37Ra): 3.13 µM (≈ 0.952 µg/mL)

SMILES: CC1(NC(=O)Nc2ccccc2)CCCC1 [Compound 5]
- MIC (M. tuberculosis H37Ra): 25 µM (≈ 5.46 µg/mL)

SMILES: CC1(NC(=O)Nc2ccc(F)c(F)c2F)CCCC1 [Compound 6]
- MIC (M. tuberculosis H37Ra): > 50 µM

SMILES: CC1(NC(=O)Nc2ccc(F)c(F)c2)CCCC1 [Compound 7]
- MIC (M. tuberculosis H37Ra): 25 µM (≈ 6.36 µg/mL)

SMILES: CC1(NC(=O)Nc2cc(F)c(F)c(F)c2)CCCC1 [Compound 8]
- MIC (M. tuberculosis H37Ra): 25 µM (≈ 6.81 µg/mL)

SMILES: O=C(Nc1ccc(Cl)c(C(F)(F)F)c1)NC1CCCC1 [Compound 9]
- MIC MTB H37Ra (M. tuberculosis H37Ra): 3.13 µM (≈ 0.96 µg/mL)
- MIC (M. tuberculosis H37Ra): 3.2 µM (≈ 0.981 µg/mL)

SMILES: O=C(Nc1ccc(Cl)c(C(F)(F)F)c1)NC1CCC1 [Compound 10]
- MIC (M. tuberculosis H37Ra): 25 µM (≈ 7.32 µg/mL)

SMILES: O=C(Nc1ccc(Cl)c(C(F)(F)F)c1)NC1CC1 [Compound 11]
- MIC (M. tuberculosis H37Ra): > 50 µM

SMILES: CC1(NC(=O)Nc2ccc(Cl)c(C(F)(F)F)c2)CCCCC1 [Compound 12]
- effect on bacteria from the Oligo-Mouse-Microbiota [1]: not affected
- competition of 227-p1 labelling of EphF and EphD [2]: weaker competition
- IC50 (WT M. tuberculosis H37Rv; [10]): 110 nM
- MIC90 (WT M. tuberculosis H37Rv; [10]): 0.2 µM (≈ 0.067 µg/mL)
- MIC MTB H37Ra (M. tuberculosis H37Ra): 0.10 µM (≈ 0.0335 µg/mL)
- MIC (M. tuberculosis H37Ra): 0.1 µM (≈ 0.0335 µg/mL)
- solubility kinetic at 5 min (physchem): 12 µM (≈ 4.02 µg/mL)
- TDM/TMM ratio compared with 227 (MmpL3): even lower TDM/TMM ratios

SMILES: CC1CCCCC1NC(=O)Nc1ccc(Cl)c(C(F)(F)F)c1 (centres unmarked) [Compound 13]
- MIC (M. tuberculosis H37Ra): 0.39 µM (≈ 0.131 µg/mL)

SMILES: CC1CCCC(NC(=O)Nc2ccc(Cl)c(C(F)(F)F)c2)C1 (centres unmarked) [Compound 14]
- MIC (M. tuberculosis H37Ra): 0.39 µM (≈ 0.131 µg/mL)

SMILES: CC1CCC(NC(=O)Nc2ccc(Cl)c(C(F)(F)F)c2)CC1 (centres unmarked) [Compound 15]
- MIC (M. tuberculosis H37Ra): 0.39 µM (≈ 0.131 µg/mL)

SMILES: O=C(Nc1ccc(Cl)c(C(F)(F)F)c1)NC1(CO)CCCCC1 [Compound 16]
- MIC (M. tuberculosis H37Ra): 3.13 µM (≈ 1.1 µg/mL)

SMILES: O=C(Nc1ccc(Cl)c(C(F)(F)F)c1)NC12CC3CC(CC(O)(C3)C1)C2 [Compound 18]
- MIC (M. tuberculosis H37Ra): 6.25 µM (≈ 2.43 µg/mL)

SMILES: O=C(Nc1ccc(Cl)c(C(F)(F)F)c1)NC12CC(C1)C2 [Compound 19]
- MIC (M. tuberculosis H37Ra): 12.5 µM (≈ 3.81 µg/mL)

SMILES: CC1(C)OCC(NC(=O)Nc2ccc(Cl)c(C(F)(F)F)c2)CO1 [Compound 20]
- MIC (M. tuberculosis H37Ra): 3.13 µM (≈ 1.1 µg/mL)

SMILES: O=C(Nc1ccc(Cl)c(C(F)(F)F)c1)NC1COC2(CCC2)OC1 [Compound 21]
- effect on bacteria from the Oligo-Mouse-Microbiota [1]: not affected; also recorded: does not kill
- AUC (in vivo [3]; iv, 5 mg/kg): 4.58 µM·h
- Cmax (in vivo [3]; iv, 5 mg/kg): 6.27 µM
- half-life (in vivo [3]; iv, 5 mg/kg): 46.2 min
- AUC (in vivo [3]; po, 25 mg/kg): 9.54 µM·h
- Cmax (in vivo [3]; po, 25 mg/kg): 4.04 µM
- bioavailability (in vivo [3]; po, 25 mg/kg): 42.5%
- CD [4]: 3.38 L/kg
- Clearance [4]: 50.82 mL/(kg*min]
- competition of 227-p1 labelling of EphF and EphD [2]: weaker competition
- MmpL3 abundance, Student's T-test Difference DMJB-04 0.5 µM vs DMSO (Mtb H37Ra proteome; full proteome, Mtb H37Ra, 0.5 µM): 0.4086
- estimated time above MIC (in vivo [5]): approximately 16 hours
- F (in vivo [5]; po, 200 mg/kg): 24.3%
- AUC (in vivo [5]; po, 200 mg/kg): 45.7 µM·h
- bioavailability (in vivo [5]; po, 200 mg/kg): 25.3%
- AUC (in vivo [5]; po, 400 mg/kg): 73.3 µM·h
- bioavailability (in vivo [5]; po, 400 mg/kg): 20.4%
- IC50 (WT M. tuberculosis H37Rv; [10]): 850 nM
- MIC90 (WT M. tuberculosis H37Rv; [10]): 1.8 µM (≈ 0.657 µg/mL)
- MIC MTB H37Ra (M. tuberculosis H37Ra): 0.78 µM (≈ 0.285 µg/mL)
- MIC (M. tuberculosis H37Ra): 0.8 µM (≈ 0.292 µg/mL)
- membrane disruption (propidium iodide entry) [6]: Neither 227 nor 21 disrupt the membrane
- half-life at 5 µM (in vitro): 8 min
- microsomal CLint at 5 µM (in vitro): 88 µL/min/mg
- solubility kinetic at 5 min (physchem): > 200 µM
- EphF inhibition (epoxide hydrolase EphF): inhibits EphF, albeit to a lesser extent
- IC50 (HeLa cells; [11]): 52 to 97 µM
- IC50 (HeLa cells; HeLa cells, 24 h, read-out: IC50 MTT assay): 71 µM
- fractional inhibitory concentration (FIC) index (MTB [7]): 0.83
- TDM/TMM ratio compared with 227 (MmpL3): even lower TDM/TMM ratios

SMILES: O=C(Nc1ccc(Cl)c(C(F)(F)F)c1)NC1CCC2(CC1)OCCO2 [Compound 22]
- MIC (M. tuberculosis H37Ra): 1.56 to 3.13 µM (≈ 0.591 to 1.19 µg/mL)
- solubility kinetic at 5 min (physchem): 112 µM (≈ 42.4 µg/mL)

SMILES: CC1(NC(=O)Nc2ccc(Cl)c(C(F)(F)F)c2)COC2(CCC2)OC1 [Compound 23]
- MIC MTB H37Ra (M. tuberculosis H37Ra): 6.25 to 12.5 µM
- MIC (M. tuberculosis H37Ra): 6.25 µM (≈ 2.37 µg/mL)
- solubility kinetic at 5 min (physchem): 58 µM (≈ 22 µg/mL)

SMILES: C#CCCC1(CCOC(=O)c2ccc(NC(=O)Nc3ccccc3)cc2)N=N1 [Compound 150-pi]
- MIC MTB H37Ra (M. tuberculosis H37Ra): inactive

SMILES: C#CC1(NC(=O)Nc2ccc(N=[N+]=[N-])cc2)CCCCC1 [Compound 227-p1]
- EphD and EphF enrichment by probe ([2]; 5 μM 227-p1, Mtb): significantly enriched
- MIC (M. tuberculosis H37Ra): 25 µM (≈ 7.08 µg/mL)
- MIC (M. smegmatis DSM43756; [12]): 6.25 µM (≈ 1.77 µg/mL)

SMILES: C#CCCC1(CCOC(=O)c2ccc(NC(=O)NC3CCCCC3)cc2)N=N1 [Compound 227-p2]
- MIC (M. tuberculosis H37Ra): > 50 µM
- MIC (M. smegmatis DSM43756; [12]): > 50 µM

SMILES: C#CCCC1(CCOC(=O)C2CCC(NC(=O)Nc3ccc(Cl)c(C(F)(F)F)c3)CC2)N=N1 (centres unmarked) [Compound 227-p3]
- MIC (M. tuberculosis H37Ra): > 50 µM
- MIC (M. smegmatis DSM43756; [12]): > 50 µM

SMILES: O=C(Nc1ccc(Cl)c(C(F)(F)F)c1)NC1CCCCC1 [Compound 227]
- bioavailability (in vivo [3]; po, 25 mg/kg): 8.6%
- Clearance [4]: fast clearance
- competition of 227-p1 labelling of EphF and EphD [2]: strongly out-competed; also recorded: out-competed
- MIC (WT M. tuberculosis H37Rv): 1.8 µM (≈ 0.577 µg/mL)
- IC50 (WT M. tuberculosis H37Rv; [10]): 1300 nM
- MIC (WT M. tuberculosis H37Rv; [10]): 1.8 µM (≈ 0.577 µg/mL)
- MIC90 (WT M. tuberculosis H37Rv; [10]): 2.5 µM (≈ 0.802 µg/mL)
- MIC (M. tuberculosis H37Ra): 1.56 to 3.13 µM (≈ 0.5 to 1 µg/mL)
- membrane disruption (propidium iodide entry) [6]: Neither 227 nor 21 disrupt the membrane
- solubility kinetic at 5 min (physchem): 55 µM (≈ 17.6 µg/mL)
- EphF inhibition (epoxide hydrolase EphF): strong inhibition
- IC50 (HeLa cells; [11]): 15 to 37 µM

SMILES: O=C(Nc1cc(C(F)(F)F)cc(C(F)(F)F)c1)Nc1ccc(Cl)c(OC(F)(F)F)c1 [Compound 275]
- MIC (M. smegmatis DSM43756; [12]): 0.8 µM (≈ 0.373 µg/mL)

SMILES: CC[C@@H](CO)NCCN[C@@H](CC)CO [Ethambutol]
- susceptibility shift in MmpL3 under-expressing strain [8]: no significant shifts

SMILES: O=C(Nc1ccc2c(c1)OC(F)(F)O2)Nc1ccc(Cl)c(C(F)(F)F)c1 [PK150]
- MIC against Mtb (Mtb [9]): 6.25 µM (≈ 2.47 µg/mL)
- MIC (M. smegmatis DSM43756): 3.1 µM (≈ 1.22 µg/mL)
- modulation of LepB activity (LepB): not a target; also recorded: did not show any inhibition

SMILES: CC(C)=CCC/C(C)=C/CNCCNC1C2CC3CC(C2)CC1C3 (centres unmarked) [SQ109, reference compound]
- dysregulated in FP? (Mtb H37Ra proteome; full proteome (FP), protein Rv3587c (O53572), probable conserved membrane protein): slightly upregulated with SQ109 treatment
